According to patent US7071197B2, “N,N-disubstituted diazocycloalkanes” (Recordati S.A., priority 2002, dated 2006):
Read-outs that look alike come from different tables or passages of the source.

Key:
[1] = target: T1, human cloned 5-HT1A receptors (Homo sapiens, UniProt P08908); assay: [35S]GTPγS binding, membranes of HeLa cells transfected with human cloned 5-HT1A receptors; format: biochemical; settings: 5-HT maximal stimulation taken as 100%
T1 construct: expressed in transfected cells
T1 sequence (P08908 1-422): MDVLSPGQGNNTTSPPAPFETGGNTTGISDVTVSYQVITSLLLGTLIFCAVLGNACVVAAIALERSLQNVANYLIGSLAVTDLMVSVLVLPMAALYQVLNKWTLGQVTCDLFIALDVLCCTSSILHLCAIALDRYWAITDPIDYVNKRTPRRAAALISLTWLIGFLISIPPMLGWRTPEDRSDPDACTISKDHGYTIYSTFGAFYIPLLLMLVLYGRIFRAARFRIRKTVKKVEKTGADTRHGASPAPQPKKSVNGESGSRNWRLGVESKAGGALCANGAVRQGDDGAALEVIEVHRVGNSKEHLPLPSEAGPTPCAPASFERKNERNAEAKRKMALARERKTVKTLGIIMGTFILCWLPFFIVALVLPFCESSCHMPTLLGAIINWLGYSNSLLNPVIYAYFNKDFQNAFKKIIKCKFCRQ
Method: (§1) A genomic clone coding for the human 5HT1A-serotonergic receptor was stably transfected in a human cell line (HeLa). HeLa cells were grown as monolayers in Dulbecco's modified Eagle medium (DMEM), containing 10% fetal bovine serum, gentamycin (0.1 mg/ml) and 5% carbon dioxide, at 37° C. The cells were detached from the growth flask at 95% confluence by a cell scraper and were lysed in cold 5 mM Tris and 5 mM EDTA buffer (pH 7.4). The homogenates were centrifuged at 40000×g×20 minutes and the pellets were resuspended in a small volume of cold 5 mM Tris and 5 mM EDTA buffer (pH 7.4) and immediately frozen and stored at −70° C. until use.
[^35S]GTPγS binding: on the experimental day, cell membranes from HeLa cells transfected with human cloned 5-HT1A receptors were resuspended in buffer pH 7.4 containing 20 mM HEPES, 3 mM MgCl2 and 120 mM NaCl (Stanton, J. A.; Beer, M. S. Eur. J. Pharmacol. 320, 267–275, 1997). The membranes were incubated with 10 μM GDP and decreasing concentrations of test drugs (from 100 μM to 0.1 nM) or decreasing concentrations of 5-HT (from 100 μM to 0.1 nM, reference curve) for 20 min at 30° C. in a final volume of about 0.25 ml. [^35S]GTPγS ([…] in 10 μl) was added to samples and incubated for a further 30 min at 30° C. Non-specific binding was determined in the presence of 10 μM GTPγS. The incubation was stopped by addition of ice-cold HEPES buffer and rapid filtration on Unifilter GF/C filters, using a Filtermate cell harvester (Packard). The filters were washed four times with total 1.2 ml of same buffer. Radioactivity was counted by liquid scintillation spectrometry with efficiency >90% (TopCount Packard). Stimulation of [^35S]GTPγS binding induced by the compounds tested was espressed as % increase in binding above basal value, being the maximal stimulation observed with 5-HT taken as 100%. The concentration-response curve of the agonistic activity was analyzed by non linear fitting program (De Lean et al., Am. J. Physiol. 235, E97-E102, 1978).
A stimulation of [^35S]GTPγS binding represented the functional correlate of the binding of an agonist compound at the 5-HT1A receptors. Stimulation induced by the endogenous ligand 5-HT was considered the maximal stimulation attainable.

[2] = target: T2, human 5HT1A-serotonergic receptor (Homo sapiens, UniProt P08908); assay: [3H]8-OH-DPAT radioligand binding to human recombinant 5-HT1A receptors; settings: for Ki: [3H]8-OH-DPAT, HeLa cell membranes, read-out: Affinity: Ki
T2 construct: expressed in transfected cells
T2 sequence (P08908 1-422): T1 sequence (P08908 1-422)
Method: as §1
[^3H]8-OH-DPAT binding: on the day of experiment, the cell membranes were resuspended in incubation buffer: 50 mM Tris HCl (pH 7.4), 2.5 mM MgCl2, […] (Fargin et al., Nature 335, 358–360, 1988). The membranes were incubated in a final volume of 1 ml for 30 minutes at 30° C. with 1 nM [^3H]8-OH-DPAT, in the absence or presence of the test compounds. Non-specific binding was determined in the presence of 10 μM 5-HT. Incubation was stopped by addition of cold Tris-HCl buffer and rapid filtration through a 0.2%-polyethyleneimine-pretreated Whatman-GF/B or Schleicher-&-Schuell-GF52 filter.
The affinity of the tested compounds was evaluated as inhibition of specific binding of the radioligand to 5-HT1A receptors (IC50) by using the non-linear curve-fitting program (De Lean et al., Am. J. Physiol. 235, E97-E102, 1978). The IC50 value was converted to an affinity constant (Ki) by the equation of Cheng et al., Biochem. Pharmacol. 22, 3099–3108 (1973).

[3] = tested on: rhythmic bladder-voiding contractions in anaesthetised rats; assay: Rhythmic bladder-voiding contractions induced by bladder filling in anaesthetised rats; format: in vivo, rat; settings: for ED10 min (extrapolated dose inducing 10 minutes of disappearance of the contractions) / ED50: intravenous administration, anaesthetised rats; for ED50: Rattus norvegicus
Method: Female Sprague-Dawley rats weighing 225–275 g (Crl: CD® (SD) IGS BR, Charles River Italia) were used. The animals were housed with free access to food and water and maintained on a forced 12-hour alternating light-dark cycle at 22–24° C. for at least one week, except during the experiment. The activity on rhythmic bladder voiding contractions was evaluated according to the method of Dray (Dray J., Pharmacol. Methods, 13:157, 1985), with some modifications as in Guarneri (Guarneri, Pharmacol. Res. 27:173, 1993). Briefly, the rats were anaesthetised by subcutaneous injection of 1.25 g/kg (5 ml/kg) urethane, after which the urinary bladder was catheterised via the urethra using PE 50 polyethylene tubing filled with physiological saline. The catheter was tied in place with a ligature around the external urethral orifice and was connected to conventional pressure transducers (Statham P23 ID/P23 XL). […] The bladder was then filled via the recording catheter by incremental volumes of warm (37° C.) saline until reflex bladder-voiding contractions occurred (usually 0.81.5 ml). For intravenous injection of bioactive compounds, PE 50 polyethylene tubing filled with physiological saline was inserted into the jugular vein.
From the cystometrogram, the number of contractions recorded 15 minutes before (basal values) and after treatment, as well as the mean amplitude of these contractions (mean height of the peaks in mmHg), was evaluated.
Since most compounds produced an effect that was relatively rapid in onset and led to a complete cessation of bladder contractions, bioactivity was conveniently estimated by measuring the duration of bladder quiescence (i.e., the length of the time during which no contractions occurred). The number of tested animals showing a reduction in the number of contractions higher than 30% of that observed in the basal period was recorded too.
The extrapolated doses which induced a reduction in the number of contractions greater than 30% in 50% of the treated rats (ED50) were evaluated by the method of Bliss (Bliss C. I., Quart J. Pharm. Pharmacol. 11, 192–216, 1938).

| Compound | Functional effect ([35S]GTPγS binding) [1] | Ki [2] | other results |
| --- | --- | --- | --- |
| O[C@@H](C1CCCCC1)[C@H](CCN1CCN(c2ccccc2OCC(F)(F)F)CC1)c1ccccc1F (racemic) [Ex. 3, 1-[(RS,SR)-4-cyclohexyl-4-hydroxy-3-(2-fluorophenyl)-butyl]-4-[2-(2,2,2-trifluoroethoxy)-phenyl]-piperazine] | Neutral antagonist | 0.29 nM |  |
| COc1ccccc1N1CCN(CCC(c2ccccc2F)C(O)C2CCCCC2)CC1 (stereo not shown) [Ex. 2, 1-[(RR-SS)-4-cyclohexyl-4-hydroxy-3-(2-fluorophenyl)-butyl]-4-(2-methoxyphenyl)-piperazine] | Neutral antagonist | 0.29 nM | potency at the 5-HT1A receptor compared with Ex. 5 ([2]; statistical signficance p<0.01): more potent than Ex. 5 |
| OC(C1CCCCC1)C(CCN1CCN(c2ccccc2OCC(F)(F)F)CC1)c1ccccc1F (stereo not drawn) [Ex. 4, 1-[(RR,SS)-4-cyclohexyl-4-hydroxy-3-(2-fluorophenyl)-butyl]-4-[2-(2,2,2-trifluoroethoxy)-phenyl]-piperazine] | Neutral antagonist | 0.68 nM |  |
| Cc1c(-c2ccccc2)oc2c(C(=O)OCCN3CCCCC3)cccc2c1=O [Flavoxate] |  |  | ED10 min (extrapolated dose inducing 10 minutes of disappearance of the contractions) [3]: >10 mg/kg |
| CCN(CC)CC#CCOC(=O)C(O)(c1ccccc1)C1CCCCC1 (stereo not shown) [Oxybutynin] |  |  | ED50 ([3]; n.a. = not active, no significant reduction of the height of the peaks, read-out: ED50 (amplitude) (extrapolated dose inducing a 30% reduction of amplitude of the contractions in 50% of treated rats)): 0.24 mg/kg; ED50 ([3]; read-out: ED50 (frequency) (extrapolated dose inducing a reduction of the number of contractions > 30% in 50% of treated rats)): > 10 mg/kg; blockade of bladder contractions ([3]; at 240 μg/kg): did not cause a blockade of bladder contractions; ED10 min (extrapolated dose inducing 10 minutes of disappearance of the contractions) [3]: 7.77 mg/kg |

The next lines start with results.

| Functional effect ([35S]GTPγS binding) [1] | Ki [2] | Compound | other results |
| --- | --- | --- | --- |
| Partial agonist | 0.5 nM | COc1ccccc1N1CCN(CC[C@@H](c2ccccc2F)[C@H](O)C2CCCCC2)CC1 [Ex. 1X, 1-[(3S,4R)-4-cyclohexyl-4-hydroxy-3-(2-fluorophenyl)-butyl]-4-(2-methoxyphenyl)-piperazine] |  |
| Partial agonist | 0.98 nM | COc1ccccc1N1CCN(CC[C@@H](c2ccccc2F)[C@@H](O)C2CCCCC2)CC1 [Ex. 2Y, 1-[(3S,4S)-4-cyclohexyl-4-hydroxy-3-(2-fluorophenyl)-butyl]-4-(2-methoxyphenyl)-piperazine] |  |
